Data: patent US20070208063A1, “Imidazole-based compounds, compositions comprising them and methods of their use” (priority 2006, published 2007)

How the values were obtained:
circulating lymphocytes = assay: Effects on lymphocytes in mice: whole blood counts (CBC); type: in vivo, mice (F1 hybrids of 129/B6 strain)
Protocol: Unless otherwise indicated, the term “circulating lymphocyte reduction factor” or “CLRF” means the decrease in the number of circulating lymphocytes in mice caused by oral administration of a single dose of a compound at 100 mg/kg, as determined by the method described in the Examples, below. Compounds were administered by oral gavage or in drinking water. For oral dosing experiments, compounds were resuspended from crystals at 10 mg/ml in vehicle (e.g., water). Mice (F1 hybrids of 129/B6 strain) were gavaged with a single 100 mg/kg dose of compound (equivalent to 100 mpk of the free base for each compound) or a vehicle-only control, and returned to their cages. Mice were anesthetized using isofluorane eighteen hours after dosing and tissues were collected for analysis as described below. For drinking water studies, compounds were dissolved at 50 mg/L in acidified water (pH=2.8) containing 10 g/L glucose. The mice were allowed free access to compound-containing water (or glucose solution as a control) for 72 hours. At the end of 72 hours, tissues were collected for analysis. CBC measurements were obtained as follows. Mice were anesthetized with isofluorane and blood was collected from the retroorbital plexus into EDTA blood collection tubes (Capiject-MQK, Terumo Medical Corp., Elkton, Md.). […]

[1] = tested on: lymphocyte egress from the thymus; assay: Effects on lymphocytes in mice: FACS of thymus T cells; type: in vivo, mice (F1 hybrids of 129/B6 strain); settings: administered in drinking water; FIGS. 1-3
Protocol: Compounds were administered by oral gavage or in drinking water. For oral dosing experiments, compounds were resuspended from crystals at 10 mg/ml in vehicle (e.g., water). Mice (F1 hybrids of 129/B6 strain) were gavaged with a single 100 mg/kg dose of compound (equivalent to 100 mpk of the free base for each compound) or a vehicle-only control, and returned to their cages. Mice were anesthetized using isofluorane eighteen hours after dosing and tissues were collected for analysis as described below. For drinking water studies, compounds were dissolved at 50 mg/L in acidified water (pH=2.8) containing 10 g/L glucose. The mice were allowed free access to compound-containing water (or glucose solution as a control) for 72 hours. At the end of 72 hours, tissues were collected for analysis. Flow cytometry (FACS) measurements were obtained as follows. Twenty five μl whole blood was lysed by hyoptonic shock, washed once in 2 ml FACS wash buffer (FWB: PBS/0.1% BSA/0.1% NaN3/2 mM EDTA) and stained for 30 minutes at 4° C. in the dark with a combination of fluorochrome-conjugated antibodies diluted in 50 μl FWB. After staining, the cells were washed once with 2 ml FWB and resuspended in 300 μl FWB for acquisition. […] Samples were analyzed using a FACSCalibur flow cytometer and CellQuest Pro software (Becton Dickinson Immunocytometry Systems, San Jose, Calif.). […]

S1P lyase = target: T1, S1P lyase (Mus musculus, UniProt Q8R0X7); settings: when administered to mice; Schwab et al. 2005; cited from earlier work
T1 construct: host or cells: mice (in vivo)
T1 sequence (Q8R0X7 1-568): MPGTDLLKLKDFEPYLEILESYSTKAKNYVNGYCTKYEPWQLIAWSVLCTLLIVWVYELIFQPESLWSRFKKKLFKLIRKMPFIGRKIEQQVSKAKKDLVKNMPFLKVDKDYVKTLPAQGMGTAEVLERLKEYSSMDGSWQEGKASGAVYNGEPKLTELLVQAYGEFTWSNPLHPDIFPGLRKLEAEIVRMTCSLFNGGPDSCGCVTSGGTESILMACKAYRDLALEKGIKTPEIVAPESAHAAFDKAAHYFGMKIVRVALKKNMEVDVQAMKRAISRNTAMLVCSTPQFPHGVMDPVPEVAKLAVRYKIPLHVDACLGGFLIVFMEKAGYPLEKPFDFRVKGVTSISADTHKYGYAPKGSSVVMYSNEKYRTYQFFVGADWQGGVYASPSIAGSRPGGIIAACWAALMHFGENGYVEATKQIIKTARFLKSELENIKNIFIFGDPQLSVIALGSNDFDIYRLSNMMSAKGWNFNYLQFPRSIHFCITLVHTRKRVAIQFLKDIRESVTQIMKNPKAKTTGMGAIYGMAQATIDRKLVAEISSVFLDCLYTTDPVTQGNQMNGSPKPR

[2] = tested on: lymphocytes / mature T cells in the thymus; settings: administration to rats and mice; cited from earlier work
immunological effects = settings: studies in humans; Thuvander 1994, Houben 1992; cited from earlier work

SMILES | effect on circulating lymphocytes (circulating lymphocytes) | effect on lymphocyte egress from the thymus [1] | S1P lyase activity (S1P lyase) | lymphopenia [2] | mature T cells in the thymus [2] | immunological effects (immunological effects)
CC(=O)c1nc(C)c([C@@H](O)[C@H](O)[C@H](O)CO)s1 [Compound 2, 1-(4-methyl-5-((1S,2R,3R)-1,2,3,4-tetrahydroxybutyl)thiazol-2-yl)ethanone] | little or no effect on circulating lymphocytes | – | – | – | – | –
CC(=O)c1nc(C(O)C(O)C(O)CO)c[nH]1 (stereo not shown) [THI, 2-acetyl-4-tetrahydroxybutylimidazole] | capable of reducing circulating lymphocytes in mice | diminished lymphocyte egress from the thymus | inhibits S1P lyase activity | induces lymphopenia | causes the accumulation of mature T cells in the thymus | no immunological effects
